# Results reported in ChEMBL document CHEMBL5715954, “Silencing c-Myc translation as a therapeutic strategy through targeting PI3Kδ and CK1ε in hematological malignancies” (Blood, 2017).
# Calls of active or inactive are those of the source. The calls are words filed in the database; no cut-off is given here.
# Tests used:
# mTORC1 (Homo sapiens) [1] = target: T1, mTORC1 (Homo sapiens) (UniProt P42345+Q8N122+Q9BVC4); assay: Inhibition of mTORC1 in human SLL cells assessed as reduction in c-Myc expression at 5 uM measured after 24 hrs in presence of bortezomib by Western blot analysis; type: cell-based
# T1 sequence (Q8N122 whole entry, looked up, other chains not shown): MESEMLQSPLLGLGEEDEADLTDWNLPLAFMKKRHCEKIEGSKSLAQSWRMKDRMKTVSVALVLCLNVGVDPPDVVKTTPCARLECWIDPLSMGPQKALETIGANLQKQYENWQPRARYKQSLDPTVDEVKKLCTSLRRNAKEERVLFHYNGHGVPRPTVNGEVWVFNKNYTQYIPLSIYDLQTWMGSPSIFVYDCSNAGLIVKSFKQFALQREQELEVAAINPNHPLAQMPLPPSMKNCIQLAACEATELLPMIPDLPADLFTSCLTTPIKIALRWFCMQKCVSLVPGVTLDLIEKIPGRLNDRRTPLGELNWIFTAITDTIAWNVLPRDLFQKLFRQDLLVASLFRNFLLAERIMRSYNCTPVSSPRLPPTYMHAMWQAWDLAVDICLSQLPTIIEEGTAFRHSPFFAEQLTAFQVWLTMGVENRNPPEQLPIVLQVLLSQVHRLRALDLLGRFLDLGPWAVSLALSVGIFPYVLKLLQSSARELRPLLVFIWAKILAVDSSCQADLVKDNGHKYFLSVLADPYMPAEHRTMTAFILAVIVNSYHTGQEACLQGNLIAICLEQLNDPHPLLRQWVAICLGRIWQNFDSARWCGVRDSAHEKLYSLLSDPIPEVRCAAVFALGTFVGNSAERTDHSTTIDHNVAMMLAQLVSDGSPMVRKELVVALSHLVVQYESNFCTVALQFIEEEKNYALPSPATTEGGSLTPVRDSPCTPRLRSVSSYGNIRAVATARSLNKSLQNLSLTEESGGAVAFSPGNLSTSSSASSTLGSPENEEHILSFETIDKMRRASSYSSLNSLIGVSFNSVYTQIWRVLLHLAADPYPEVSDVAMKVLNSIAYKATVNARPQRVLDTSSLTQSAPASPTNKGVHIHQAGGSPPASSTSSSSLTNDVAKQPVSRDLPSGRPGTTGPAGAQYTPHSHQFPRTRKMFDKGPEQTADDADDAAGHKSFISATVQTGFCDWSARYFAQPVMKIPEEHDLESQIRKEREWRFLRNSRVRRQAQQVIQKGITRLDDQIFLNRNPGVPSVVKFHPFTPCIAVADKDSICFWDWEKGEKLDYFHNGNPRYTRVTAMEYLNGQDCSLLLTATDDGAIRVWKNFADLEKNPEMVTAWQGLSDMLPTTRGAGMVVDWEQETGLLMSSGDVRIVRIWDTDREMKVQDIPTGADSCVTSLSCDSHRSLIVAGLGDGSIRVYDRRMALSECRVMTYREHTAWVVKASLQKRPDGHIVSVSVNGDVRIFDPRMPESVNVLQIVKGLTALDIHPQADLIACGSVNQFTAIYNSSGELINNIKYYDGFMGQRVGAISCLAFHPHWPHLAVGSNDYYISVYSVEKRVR
# T1 sequence (Q9BVC4 whole entry, looked up, other chains not shown): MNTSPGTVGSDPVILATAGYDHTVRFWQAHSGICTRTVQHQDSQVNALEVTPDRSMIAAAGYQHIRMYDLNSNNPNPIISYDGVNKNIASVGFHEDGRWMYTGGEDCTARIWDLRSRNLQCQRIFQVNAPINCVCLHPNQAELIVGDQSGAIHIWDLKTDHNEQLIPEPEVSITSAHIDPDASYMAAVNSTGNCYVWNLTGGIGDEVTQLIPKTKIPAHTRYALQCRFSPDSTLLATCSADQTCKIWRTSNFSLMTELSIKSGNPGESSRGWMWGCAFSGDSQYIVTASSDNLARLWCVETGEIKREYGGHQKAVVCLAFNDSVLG
# mTORC1 (Homo sapiens) [2] = target: T1, mTORC1 (Homo sapiens); assay: Inhibition of mTORC1 in human PF-382 cells assessed as reduction in c-Myc expression at 5 uM measured after 24 hrs in presence of bortezomib by Western blot analysis; type: cell-based
# mTORC1 (Homo sapiens) [3] = target: T1, mTORC1 (Homo sapiens); assay: Inhibition of mTORC1 in human SLL cells assessed as reduction in 4E-BP1 phosphorylation at 5 uM measured after 24 hrs in presence of bortezomib by Western blot analysis; type: cell-based
# SLL = assay: Induction of apoptosis in human SLL cells assessed as increase in cleaved-PARP expression at 5 uM measured after 24 hrs in presence of bortezomib by Western blot analysis; type: functional, cell-based
# mTORC1 (Homo sapiens) [4] = target: T1, mTORC1 (Homo sapiens); assay: Inhibition of mTORC1 in human LY7 cells assessed as reduction in c-Myc mRNA expression at 3 uM measured after 24 hrs in presence of bortezomib; type: cell-based
# [5] = target: Myc proto-oncogene protein (Homo sapiens) (UniProt P01106); assay: Inhibition of c-Myc in human LY7 cells assessed as reduction in E2F1 expression at 3 uM incubated for 24 hrs in presence of bortezomib by Western blot analysis; type: cell-based
# Sequence of Myc proto-oncogene protein (Homo sapiens) (P01106 whole entry): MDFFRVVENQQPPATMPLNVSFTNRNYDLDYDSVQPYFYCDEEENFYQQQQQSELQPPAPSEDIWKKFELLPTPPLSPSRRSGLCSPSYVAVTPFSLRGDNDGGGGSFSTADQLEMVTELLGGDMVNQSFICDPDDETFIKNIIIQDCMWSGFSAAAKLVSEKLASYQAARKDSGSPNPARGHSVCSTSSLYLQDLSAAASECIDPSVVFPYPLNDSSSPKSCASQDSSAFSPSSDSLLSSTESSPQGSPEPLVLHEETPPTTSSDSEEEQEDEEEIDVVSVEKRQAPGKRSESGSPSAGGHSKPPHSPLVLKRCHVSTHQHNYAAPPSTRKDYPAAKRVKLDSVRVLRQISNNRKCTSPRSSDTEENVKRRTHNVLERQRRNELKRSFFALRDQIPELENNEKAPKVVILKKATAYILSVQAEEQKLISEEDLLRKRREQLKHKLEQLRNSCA
# mTORC1 (Homo sapiens) [6] = target: T1, mTORC1 (Homo sapiens); assay: Inhibition of mTORC1 in human NCI-H929 cells assessed as reduction in 4E-BP1 phosphorylation at 5 uM measured after 24 hrs by Western blot analysis; type: cell-based
# mTORC1 (Homo sapiens) [7] = target: T1, mTORC1 (Homo sapiens); assay: Inhibition of mTORC1 in human LY7 cells assessed as reduction in 4E-BP1 phosphorylation at 3 uM measured after 24 hrs in presence of carfilzomib by Western blot analysis; type: cell-based
# mTORC1 (Homo sapiens) [8] = target: T1, mTORC1 (Homo sapiens); assay: Inhibition of mTORC1 in human SLL cells assessed as reduction in c-Myc expression at 5 uM measured after 24 hrs in presence of carfilzomib by Western blot analysis; type: cell-based
# [9] = target: T2, Phosphatidylinositol 4,5-bisphosphate 3-kinase catalytic subunit delta isoform (Homo sapiens) (UniProt O00329); assay: Inhibition of PI3Kdelta in human HL-60 cells assessed as reduction in AKT phosphorylation at S473 residue measured after 4 hrs; type: cell-based; details: dose 10-10000 nM
# T2 sequence (whole entry): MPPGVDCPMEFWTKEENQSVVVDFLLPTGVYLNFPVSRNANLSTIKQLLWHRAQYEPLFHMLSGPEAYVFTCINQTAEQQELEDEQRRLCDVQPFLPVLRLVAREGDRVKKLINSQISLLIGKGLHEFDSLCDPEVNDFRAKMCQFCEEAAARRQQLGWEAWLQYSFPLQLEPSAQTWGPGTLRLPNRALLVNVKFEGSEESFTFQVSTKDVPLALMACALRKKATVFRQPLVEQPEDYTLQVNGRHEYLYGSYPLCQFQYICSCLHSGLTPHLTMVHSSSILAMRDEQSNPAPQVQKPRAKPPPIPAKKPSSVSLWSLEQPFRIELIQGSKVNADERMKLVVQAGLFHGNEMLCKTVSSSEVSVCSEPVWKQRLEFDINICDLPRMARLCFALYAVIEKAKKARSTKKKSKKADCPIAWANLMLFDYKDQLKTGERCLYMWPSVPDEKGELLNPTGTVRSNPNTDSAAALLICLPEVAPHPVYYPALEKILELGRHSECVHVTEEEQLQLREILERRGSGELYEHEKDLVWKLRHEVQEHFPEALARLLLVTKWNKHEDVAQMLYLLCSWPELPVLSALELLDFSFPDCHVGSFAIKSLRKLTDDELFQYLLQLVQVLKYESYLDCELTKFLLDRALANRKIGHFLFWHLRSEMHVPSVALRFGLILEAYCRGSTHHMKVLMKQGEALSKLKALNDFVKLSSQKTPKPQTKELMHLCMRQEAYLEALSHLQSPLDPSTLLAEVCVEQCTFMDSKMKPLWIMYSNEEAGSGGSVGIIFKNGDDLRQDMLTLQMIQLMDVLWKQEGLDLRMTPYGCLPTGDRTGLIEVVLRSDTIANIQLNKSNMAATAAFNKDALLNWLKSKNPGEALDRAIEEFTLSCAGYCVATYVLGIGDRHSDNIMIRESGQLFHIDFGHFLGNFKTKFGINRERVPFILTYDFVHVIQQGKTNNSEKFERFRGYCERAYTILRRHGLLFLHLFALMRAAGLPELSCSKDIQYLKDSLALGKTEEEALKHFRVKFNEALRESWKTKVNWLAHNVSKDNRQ
# [10] = target: T2, Phosphatidylinositol 4,5-bisphosphate 3-kinase catalytic subunit delta isoform (Homo sapiens); assay: Inhibition of PI3Kdelta in human MOLT-4 cells assessed as reduction in AKT phosphorylation at S473 residue measured after 4 hrs; type: cell-based; details: dose 10-10000 nM
# [11] = target: T2, Phosphatidylinositol 4,5-bisphosphate 3-kinase catalytic subunit delta isoform (Homo sapiens); assay: Inhibition of PI3Kdelta in human DB cells assessed as reduction in AKT phosphorylation at S473 residue measured after 4 hrs; type: cell-based; details: dose 10-10000 nM
# [12] = target: T2, Phosphatidylinositol 4,5-bisphosphate 3-kinase catalytic subunit delta isoform (Homo sapiens); assay: Inhibition of PI3Kdelta in human MOLT-4 cells assessed as reduction in AKT phosphorylation at S473 residue at 1 uM measured after 4 hrs relative to control; type: cell-based
# [13] = target: T2, Phosphatidylinositol 4,5-bisphosphate 3-kinase catalytic subunit delta isoform (Homo sapiens); assay: Inhibition of PI3Kdelta in human DB cells assessed as reduction in AKT phosphorylation at S473 residue at 1 uM measured after 4 hrs relative to control; type: cell-based
# mTORC1 (Homo sapiens) [14] = target: T1, mTORC1 (Homo sapiens); assay: Inhibition of mTORC1 in human OCILY7 cells transfected with c-myc-5'-UTR-luciferase construct assessed as reduction in c-myc translation at 3 to 5 uM incubated for 24 hrs in presence of carfilzomib by luciferase reporter gene assay; type: cell-based; details: dose 3-5 µM
# mTORC1 (Homo sapiens) [15] = target: T1, mTORC1 (Homo sapiens); assay: Inhibition of mTORC1 in human LY7 cells assessed as reduction in c-Myc mRNA expression at 3 uM measured after 24 hrs in presence of carfilzomib; type: cell-based
# mTORC1 (Homo sapiens) [16] = target: T1, mTORC1 (Homo sapiens); assay: Inhibition of mTORC1 in human OCILY7 cells transfected with c-Myc-expressing plasmid (M+) assessed as reduction in endogenous c-Myc expression at 3 to 5 uM incubated for 24 hrs in presence of carfilzomib by Western blot analysis; type: cell-based; details: dose 3-5 µM
# mTORC1 (Homo sapiens) [17] = target: T1, mTORC1 (Homo sapiens); assay: Inhibition of mTORC1 in human NCI-H929 cells transduced with an eIF4E-overexpressing plasmid assessed as reduction in eIF4E expression at 5 uM incubated for 24 hrs in presence of carfilzomib by Western blot analysis; type: cell-based
# [18] = target: Casein kinase I isoform epsilon (Homo sapiens, UniProt P49674); assay: Inhibition of CK1epsilon in human LY7 cells assessed as reduction in CK1epsilon autophosphorylation at 10 to 25 uM preincubated for 1 hr followed by addition of PP2A inhibitor calyculin A and measured after 15 to 60 mins by Western blot analysis; type: cell-based; details: dose 10-25 µM, time lower 75.0 min, time upper […]
# Sequence of Casein kinase I isoform epsilon (P49674 whole entry, looked up, canonical isoform): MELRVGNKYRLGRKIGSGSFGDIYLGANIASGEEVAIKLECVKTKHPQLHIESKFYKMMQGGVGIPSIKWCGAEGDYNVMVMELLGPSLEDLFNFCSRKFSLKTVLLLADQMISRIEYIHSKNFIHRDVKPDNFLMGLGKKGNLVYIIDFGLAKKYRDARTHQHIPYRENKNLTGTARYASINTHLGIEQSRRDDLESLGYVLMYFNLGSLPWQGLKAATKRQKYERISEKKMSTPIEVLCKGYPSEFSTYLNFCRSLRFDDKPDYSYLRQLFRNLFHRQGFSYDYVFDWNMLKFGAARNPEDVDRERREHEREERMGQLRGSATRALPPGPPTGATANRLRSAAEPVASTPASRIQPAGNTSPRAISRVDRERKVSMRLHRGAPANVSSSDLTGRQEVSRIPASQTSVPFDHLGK
# OCI-Ly7 = assay: Cytotoxicity against human OCILY7 cells transfected with c-Myc-expressing plasmid (M+) assessed as reduction in cell viability at 7.5 to 25 uM incubated for 24 hrs by cell-titer glo assay; type: functional, cell-based; details: dose 7.5-25 µM
# LY7 [19] = assay: Inhibition of PI3Kdelta/CK1epsilon in human LY7 cells assessed as reduction in 4E-BP1 phosphorylation at 25 uM incubated for 24 hrs by Western blot analysis; type: cell-based
# LY7 [20] = assay: Inhibition of PI3Kdelta/CK1epsilon in human LY7 cells assessed as reduction in c-Myc expression at 25 uM incubated for 24 hrs by Western blot analysis; type: cell-based
structure (smiles),measurement,setting,value
CC[C@H](Nc1ncnc2[nH]cnc12)c1nc2cccc(F)c2c(=O)n1-c1ccccc1,inhibition,mTORC1 (Homo sapiens) [1],inactive
same,inhibition,mTORC1 (Homo sapiens) [2],inactive
same,inhibition,mTORC1 (Homo sapiens) [3],inactive
same,Activity,SLL,Active
same,inhibition,mTORC1 (Homo sapiens) [4],inactive
same,inhibition,[5],inactive
CC(C)Oc1ccc(-c2nn([C@@H](C)c3oc4ccc(F)cc4c(=O)c3-c3cccc(F)c3)c3ncnc(N)c23)cc1F [UMBRALISIB],inhibition,mTORC1 (Homo sapiens) [6],inactive
same,inhibition,mTORC1 (Homo sapiens) [7],Active
same,inhibition,mTORC1 (Homo sapiens) [8],Active
same,inhibition,[9],Dose-Dependent Effect
same,inhibition,[10],Dose-Dependent Effect
same,inhibition,[11],Dose-Dependent Effect
same,inhibition,[12],43%
same,inhibition,[13],43%
same,inhibition,mTORC1 (Homo sapiens) [14],Active
same,inhibition,mTORC1 (Homo sapiens) [15],inactive
same,inhibition,mTORC1 (Homo sapiens) [16],inactive
same,inhibition,mTORC1 (Homo sapiens) [17],inactive
same,inhibition,[18],Active
same,Activity,OCI-Ly7,inactive
same,inhibition,LY7 [19],Active
same,inhibition,LY7 [20],Active
